In brackets after ≈: the same amount, converted by molar mass.
Legend:
[1] = tested on: brine shrimp larvae; test: in vivo; settings: for LD50 (brine shrimp): brine shrimp larvae, 96 well plates, 24 h incubation; for LC50 against brine shrimp larvae: 96 well plates assay
Description: (§1) According to the method described by Wanyoike, brine shrimp eggs (Ocean Star International, Inc., USA) were hatched in a large beaker containing natural sea water (South China Sea) and they were cultured at room temperature for 48 h. With the help of a light source, the larvae grouped together on one side of the vessel and were easily collected for the assay. […] Each test was processed in triplicate with approximate ten larvae. Brine shrimps were counted under a magnifying glass after 24 h of incubation and maintaining the 96 well plates under illumination. The controls were prepared in the same manner except that the test samples were omitted.

[2] = design: method as in PMID 10378778; settings: cited from earlier work
[3] = tested on: Lewis lung carcinoma; design: method as in PMID 490172; settings: mice, 1.25 mg/Kg; cited from earlier work
[4] = tested on: P-388 lymphocytic leukemia; design: method as in PMID 490172; settings: mice, 10 mg/Kg; cited from earlier work
[5] = tested on: lung cancer (HvEvc) cell line; test: antiproliferative MTT assay, HvEvc; type: cell-based; settings: MTT method, 72 h
Description: (§2) Antiproliferative activities of compounds were evaluated by the MTT method using mammary cancer (F10) and lung cancer (HvEvc) cell lines. In MTT assay, the cell suspensions (200 μL) at a density of 1 × 10^5 cells mL^−1 were plated in 96-well microtiter plates and incubated for 24 h at 37 °C in a humidified incubator at 5% CO2. The tested compound solution (2 μL in DMSO) at different concentrations was added to each well and further incubated for 72 h in the same condition. Then, the MTT solution (50 μL) was added to each well and incubated for 4 h. The old medium (150 μL) containing MTT was then gently replaced by DMSO. Absorbance was then determined on a Spectra Max Plus plate reader at 490 nm.

[6] = tested on: mammary cancer (F10) cell line; test: antiproliferative MTT assay, F10; type: cell-based; settings: MTT method, 72 h
Description: as §2

[7] = in vivo; settings: brine shrimp, in vivo, other: larvae exposed in sea water in 96 well plate, LC50 against brine shrimp larvae; 96 well plates assay
Description: as §1

[8] = tested on: P-388 lymphocytic leukemia; design: method as in doi:10.1021/jo00150a028; settings: in vitro; cited from earlier work

| Compound | LD50 (brine shrimp) [1] [µg/mL] | LC50 against brine shrimp larvae [1] [µM] | other results |
| --- | --- | --- | --- |
| COc1cc2oc(=O)ccc2cc1C=O [Compound 4, 6-formyl-7-methoxycoumarin] | >500 | – | – |
| arscotin [Compound 7] | 118.5 | < 500 | – |
| C=C(C)[C@@H](O)[C@@H](O)c1c(OC)ccc2ccc(=O)oc12 [murrangatin] | – | – | anti-tumor promoting activity [2]: valuable anti-tumor promoting agents |
| COc1cc2oc(=O)ccc2cc1[C@@H]1OC(=O)[C@@]2(C)O[C@@H]12 [micromelin] | – | – | T/C [3]: 228%; T/C [4]: 149% |
| C=C(C)C(CO)c1c(OC)ccc2ccc(=O)oc12 (stereo not shown) [Compound 10, isomurralonginol] | 50.6 | < 500 | IC50 (HvEvc) [5]: 72.6 µg/mL (≈ 279 µM) |
| C=C(C)[C@H](O)[C@@H](O)c1c(OC)ccc2ccc(=O)oc12 [minumicrolin] | – | – | anti-tumor promoting activity [2]: valuable anti-tumor promoting agents |
| murralonginol [Compound 8] | >500 | – | – |
| microminutinin [Compound 12] | >500 | – | – |
| C=C(C)C(O)C(OC)c1c(OC)ccc2ccc(=O)oc12 (stereo not shown) [Compound 11, murracarpin] | 158.5 | < 500 | IC50 (HvEvc) [5]: 124.3 µg/mL (≈ 428 µM) |
| COc1ccc2ccc(=O)oc2c1/C=C/C(C)(C)O [Compound 6, murraol] | 199.3 | < 500 | IC50 (HvEvc) [5]: 172.5 µg/mL (≈ 663 µM) |
| C=C(C)C(OC1OC(CO)C(O)C(O)C1O)C(O)c1c(OC)ccc2ccc(=O)oc12 (stereo not drawn) [Compound 2, 7-Methoxy-8-(1-hydroxy-2-O-β-glucopyranosyl-3-methyl-4-butene-1-yl)coumarin] | 29.1 | – | IC50 [6]: 23.6 µg/mL (≈ 53.8 µM); IC50 [5]: 68.5 µg/mL (≈ 156 µM); LC50 at 24 h [7]: < 500 µg/mL |
| COc1ccc2ccc(=O)oc2c1/C=C/C(CO)COC(=O)CC(C)C (stereo not shown) [Compound 1, 7-Methoxy-8-(2-hydroxmethyl-1-O-isovaleryl-4-butenyl)coumarin] | 6.8 | < 10 | IC50 [5]: 35.7 µg/mL (≈ 99.1 µM); LC50 at 24 h [7]: 6.8 µg/mL (≈ 18.9 µM) |
| COc1ccc2ccc(=O)oc2c1C(C=O)=C(C)C [Compound 5, murralongin] | >500 | – | – |
| microfalcatin isovalerate [Compound 14] | – | – | IC50 (F10) [6]: 112.0 µg/mL |
| microminutin [Compound 3] | 107.3 | < 500 | IC50 (F10) [6]: 82.9 µg/mL; ED50 [8]: 3.7 µg/mL |
| methoxymicrominutinin [Compound 13] | >500 | – | – |
| (E)-osthenone [Compound 9] | >500 | – | – |
